# Laboratory results as given in PMC11062922 (Nature Chemical Biology, 2023).
# Columns and labels:
# CLK3 = assay: Kinobeads competition binding: CLK3; set-up: species or system human; details: target CLK3
# FECH = assay: Kinobeads competition binding: FECH; set-up: species or system human; details: target FECH
# FGFR1 = target: T1, FGFR1 (Homo sapiens, UniProt P11362); assay: Kinobeads competition binding: FGFR1; details: target FGFR1
# T1 construct: endogenous in cells
# Source text: Supplement 41589_2023_1459_MOESM4_ESM.xlsx, sheet "CATDS matrix" | column: FGFR1
# PIP4K2C = target: T2, PIP4K2C (Homo sapiens, UniProt Q8TBX8); assay: Kinobeads competition binding: PIP4K2C; details: target PIP4K2C
# T2 construct: a mixture of lysates from five cancer cell lines; endogenous in cells
# T2 sequence (Q8TBX8 1-421): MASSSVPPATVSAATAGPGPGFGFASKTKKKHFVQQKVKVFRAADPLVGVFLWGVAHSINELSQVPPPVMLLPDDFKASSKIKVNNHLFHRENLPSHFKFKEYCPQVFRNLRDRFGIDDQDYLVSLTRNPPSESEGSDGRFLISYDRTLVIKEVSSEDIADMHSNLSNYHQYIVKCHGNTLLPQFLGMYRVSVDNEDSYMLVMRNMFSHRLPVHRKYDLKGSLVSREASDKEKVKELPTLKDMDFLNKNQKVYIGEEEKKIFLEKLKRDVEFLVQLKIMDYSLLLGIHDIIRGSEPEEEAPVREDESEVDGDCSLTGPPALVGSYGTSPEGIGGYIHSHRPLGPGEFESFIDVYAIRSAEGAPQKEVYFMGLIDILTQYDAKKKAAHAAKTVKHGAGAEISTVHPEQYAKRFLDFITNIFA
# Source text: Supplement 41589_2023_1459_MOESM4_ESM.xlsx, sheet "CATDS matrix" | column: PIP4K2C
# LIMK1 = assay: Kinobeads competition binding: LIMK1; set-up: species or system human; details: target LIMK1
# MAPK3 = assay: Kinobeads competition binding: MAPK3; set-up: species or system human; details: target MAPK3
# MST1R = assay: Kinobeads competition binding: MST1R; set-up: species or system human; details: target MST1R;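 also: selectivity score: engagement of this protein divided by summed engagement of all targets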
# ERBB3 = assay: Kinobeads competition binding: ERBB3; set-up: species or system human; details: target ERBB3;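 also: selectivity score: engagement of this protein divided by summed engagement of all targets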
# MAPK10 = assay: Kinobeads competition binding: MAPK10; set-up: species or system human; details: target MAPK10
# EPHB3 = target: T3, EPHB3 (Homo sapiens, UniProt P54753); assay: Kinobeads competition binding: EPHB3; details: target EPHB3
# T3 construct: endogenous in cells
# T3 sequence (P54753 34-998): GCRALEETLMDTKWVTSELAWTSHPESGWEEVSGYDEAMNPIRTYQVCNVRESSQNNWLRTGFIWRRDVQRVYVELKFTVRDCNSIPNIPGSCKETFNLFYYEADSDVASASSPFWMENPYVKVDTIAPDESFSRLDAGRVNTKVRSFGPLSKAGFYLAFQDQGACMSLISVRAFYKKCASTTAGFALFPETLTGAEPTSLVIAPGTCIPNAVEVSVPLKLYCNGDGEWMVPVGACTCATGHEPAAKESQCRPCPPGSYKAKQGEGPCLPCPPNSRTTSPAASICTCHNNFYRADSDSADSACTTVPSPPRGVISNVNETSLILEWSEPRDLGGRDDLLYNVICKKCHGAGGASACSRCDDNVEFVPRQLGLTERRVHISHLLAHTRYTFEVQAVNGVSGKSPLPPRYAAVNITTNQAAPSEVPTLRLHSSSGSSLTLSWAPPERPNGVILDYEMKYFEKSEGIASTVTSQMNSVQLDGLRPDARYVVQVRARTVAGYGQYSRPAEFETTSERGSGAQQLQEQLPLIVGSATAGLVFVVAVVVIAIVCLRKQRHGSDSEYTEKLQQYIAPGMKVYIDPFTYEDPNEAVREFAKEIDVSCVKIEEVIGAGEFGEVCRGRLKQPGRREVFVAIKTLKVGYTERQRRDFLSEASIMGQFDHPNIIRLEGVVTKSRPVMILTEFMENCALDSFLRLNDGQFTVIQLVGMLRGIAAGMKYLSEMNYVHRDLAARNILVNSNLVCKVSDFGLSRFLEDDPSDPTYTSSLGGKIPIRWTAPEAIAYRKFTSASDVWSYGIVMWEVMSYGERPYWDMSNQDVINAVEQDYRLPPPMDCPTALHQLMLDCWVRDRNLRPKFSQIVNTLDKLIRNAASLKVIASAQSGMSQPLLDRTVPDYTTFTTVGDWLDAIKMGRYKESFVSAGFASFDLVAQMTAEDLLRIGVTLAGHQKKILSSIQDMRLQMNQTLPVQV
# Source text: Supplement 41589_2023_1459_MOESM4_ESM.xlsx, sheet "CATDS matrix" | column: EPHB3
# PAK4 = target: T4, PAK4 (Homo sapiens, UniProt O96013); assay: Kinobeads competition binding: PAK4; details: target PAK4
# T4 construct: a mixture of lysates from five cancer cell lines; endogenous in cells
# Source text: Supplement 41589_2023_1459_MOESM4_ESM.xlsx, sheet "CATDS matrix" | column: PAK4
# GSK3A = target: T5, GSK3A (Homo sapiens, UniProt P49840); assay: Kinobeads competition binding: GSK3A; details: target GSK3A
# T5 construct: endogenous in cells
# JAK1 = assay: Kinobeads competition binding: JAK1; set-up: species or system human; details: target JAK1;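 also: target engagement share of this target among all targets at its Kdapp concentration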
# BTK = target: T6, BTK (Homo sapiens, UniProt Q06187); assay: Kinobeads competition binding: BTK; details: target BTK
# T6 construct: endogenous in cells
# Source text: Supplement 41589_2023_1459_MOESM4_ESM.xlsx, sheet "CATDS matrix" | column: BTK
# HCK = target: T7, HCK (Homo sapiens, UniProt P08631); assay: Kinobeads competition binding: HCK; details: target HCK
# T7 construct: endogenous in cells
# Source text: Supplement 41589_2023_1459_MOESM4_ESM.xlsx, sheet "CATDS matrix" | column: HCK
# T1 sequence (P11362 22-822): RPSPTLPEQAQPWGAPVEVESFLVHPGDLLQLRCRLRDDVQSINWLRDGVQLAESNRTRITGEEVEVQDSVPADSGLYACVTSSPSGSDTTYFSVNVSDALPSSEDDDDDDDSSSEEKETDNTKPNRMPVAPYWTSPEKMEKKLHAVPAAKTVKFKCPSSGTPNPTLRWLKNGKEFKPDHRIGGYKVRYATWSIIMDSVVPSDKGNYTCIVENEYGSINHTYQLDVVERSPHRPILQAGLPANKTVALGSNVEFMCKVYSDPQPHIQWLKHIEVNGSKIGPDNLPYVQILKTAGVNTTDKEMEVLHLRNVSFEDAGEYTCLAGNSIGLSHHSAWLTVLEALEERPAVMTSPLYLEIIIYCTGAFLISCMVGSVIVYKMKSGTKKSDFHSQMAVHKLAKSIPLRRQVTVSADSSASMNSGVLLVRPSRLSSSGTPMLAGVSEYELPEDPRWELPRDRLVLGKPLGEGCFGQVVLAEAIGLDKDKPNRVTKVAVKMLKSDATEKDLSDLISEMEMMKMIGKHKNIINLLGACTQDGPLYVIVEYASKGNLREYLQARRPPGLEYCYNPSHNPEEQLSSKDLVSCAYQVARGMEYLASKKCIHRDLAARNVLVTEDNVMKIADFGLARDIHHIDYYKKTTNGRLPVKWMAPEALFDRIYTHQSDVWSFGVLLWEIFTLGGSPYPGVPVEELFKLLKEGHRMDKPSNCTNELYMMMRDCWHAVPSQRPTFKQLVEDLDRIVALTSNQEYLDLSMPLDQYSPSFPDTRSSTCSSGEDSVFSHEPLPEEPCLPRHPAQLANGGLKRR
# T7 sequence (P08631 whole entry): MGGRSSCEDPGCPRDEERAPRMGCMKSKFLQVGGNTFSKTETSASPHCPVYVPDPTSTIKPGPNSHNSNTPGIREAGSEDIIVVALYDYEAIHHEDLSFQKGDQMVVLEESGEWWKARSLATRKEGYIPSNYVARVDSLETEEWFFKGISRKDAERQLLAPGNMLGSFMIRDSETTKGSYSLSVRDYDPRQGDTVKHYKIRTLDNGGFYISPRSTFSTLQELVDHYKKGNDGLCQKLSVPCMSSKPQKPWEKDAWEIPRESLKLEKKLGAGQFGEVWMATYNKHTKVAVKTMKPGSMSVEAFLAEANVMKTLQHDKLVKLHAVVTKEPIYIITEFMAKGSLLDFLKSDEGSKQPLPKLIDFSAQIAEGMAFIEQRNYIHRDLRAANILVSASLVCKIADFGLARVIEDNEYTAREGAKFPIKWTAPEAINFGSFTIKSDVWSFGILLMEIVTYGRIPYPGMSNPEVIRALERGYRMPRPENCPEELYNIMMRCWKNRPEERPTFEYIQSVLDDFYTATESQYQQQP
# T4 sequence (O96013 whole entry): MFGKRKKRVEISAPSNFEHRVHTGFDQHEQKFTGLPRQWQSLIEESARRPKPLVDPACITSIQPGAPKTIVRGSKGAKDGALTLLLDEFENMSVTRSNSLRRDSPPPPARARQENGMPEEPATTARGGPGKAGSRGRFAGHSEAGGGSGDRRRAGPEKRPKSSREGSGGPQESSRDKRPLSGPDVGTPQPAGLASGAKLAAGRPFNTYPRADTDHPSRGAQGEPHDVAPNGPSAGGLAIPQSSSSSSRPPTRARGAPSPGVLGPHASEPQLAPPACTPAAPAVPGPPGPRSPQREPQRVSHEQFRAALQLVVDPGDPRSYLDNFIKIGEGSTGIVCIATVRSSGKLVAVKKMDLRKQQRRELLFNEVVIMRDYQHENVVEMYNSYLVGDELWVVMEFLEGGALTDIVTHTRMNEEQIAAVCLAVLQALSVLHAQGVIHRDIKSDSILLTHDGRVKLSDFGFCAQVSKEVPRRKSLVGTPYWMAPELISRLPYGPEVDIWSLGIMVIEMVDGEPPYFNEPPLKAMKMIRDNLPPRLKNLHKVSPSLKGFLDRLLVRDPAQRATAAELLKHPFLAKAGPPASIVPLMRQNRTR
# T5 sequence (P49840 whole entry): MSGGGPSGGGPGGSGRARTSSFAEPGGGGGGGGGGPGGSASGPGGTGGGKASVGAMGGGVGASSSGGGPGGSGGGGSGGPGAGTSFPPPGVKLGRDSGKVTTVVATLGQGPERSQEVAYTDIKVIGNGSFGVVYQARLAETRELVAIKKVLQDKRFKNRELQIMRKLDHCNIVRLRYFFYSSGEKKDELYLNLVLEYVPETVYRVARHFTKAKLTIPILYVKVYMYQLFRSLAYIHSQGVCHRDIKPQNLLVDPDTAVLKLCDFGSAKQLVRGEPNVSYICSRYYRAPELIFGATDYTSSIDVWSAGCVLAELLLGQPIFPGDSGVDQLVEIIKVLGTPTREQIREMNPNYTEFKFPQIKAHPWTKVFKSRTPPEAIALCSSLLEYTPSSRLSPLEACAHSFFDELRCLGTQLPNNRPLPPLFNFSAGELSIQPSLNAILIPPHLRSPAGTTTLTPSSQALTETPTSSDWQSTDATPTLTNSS
# T6 sequence (Q06187 whole entry): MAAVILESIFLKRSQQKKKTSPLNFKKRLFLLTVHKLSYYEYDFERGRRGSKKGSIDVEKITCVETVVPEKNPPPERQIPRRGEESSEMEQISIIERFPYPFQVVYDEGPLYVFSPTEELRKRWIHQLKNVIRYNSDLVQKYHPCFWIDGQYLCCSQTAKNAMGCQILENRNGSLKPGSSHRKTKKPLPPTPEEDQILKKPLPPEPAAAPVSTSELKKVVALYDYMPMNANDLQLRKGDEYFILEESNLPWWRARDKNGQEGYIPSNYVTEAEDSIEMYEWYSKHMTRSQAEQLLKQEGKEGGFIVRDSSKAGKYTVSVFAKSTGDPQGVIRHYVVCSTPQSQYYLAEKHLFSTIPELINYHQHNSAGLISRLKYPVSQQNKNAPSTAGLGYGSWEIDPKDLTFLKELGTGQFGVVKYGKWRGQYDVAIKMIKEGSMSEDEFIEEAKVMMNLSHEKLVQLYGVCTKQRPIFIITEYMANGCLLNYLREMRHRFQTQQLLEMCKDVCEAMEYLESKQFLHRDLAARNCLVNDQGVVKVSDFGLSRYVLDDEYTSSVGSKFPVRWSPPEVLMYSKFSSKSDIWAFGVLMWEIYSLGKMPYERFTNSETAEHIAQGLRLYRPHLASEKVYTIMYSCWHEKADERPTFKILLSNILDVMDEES
Structure (SMILES),CATDS (CLK3),CATDS (FECH),CATDS (FGFR1),CATDS (PIP4K2C),CATDS (LIMK1),CATDS (MAPK3),CATDS (MST1R),CATDS (ERBB3),CATDS (MAPK10),CATDS (EPHB3),CATDS (PAK4),CATDS (GSK3A),CATDS (JAK1),CATDS (BTK),CATDS (HCK)
CCc1cc2c(cc1N1CCC(N3CCOCC3)CC1)C(C)(C)c1[nH]c3cc(C#N)ccc3c1C2=O [Alectinib],0,0,0,0,0,0,0,0,0,0,0,0,0,0,0
CN(C)C/C=C/C(=O)Nc1cc2c(Nc3ccc(F)c(Cl)c3)ncnc2cc1O[C@H]1CCOC1 [Afatinib],–,0,0,0,–,–,–,–,–,0,0,0,–,0,0
Nc1ncnc2[nH]c(-c3ccccc3)nc12 [AH5015_KCGS],0,0,0,0,0,0,0,0,0,0,0,0.1015,0,0,0
CCN1CCN(Cc2ccc(Nc3ncc(F)c(-c4cc(F)c5nc(C)n(C(C)C)c5c4)n3)nc2)CC1 [Abemaciclib],0,0,0,0,0,0,0,0,0,0,0,0.08929,0,0,0
N#CC1(c2ccc(NC(=O)c3cccnc3NCc3ccncc3)cc2)CCCC1 [Apatinib],0,0,0,0,0,0,0,0,0,0,0,0,0,0,0
